One test concerns the target hSTING(HAQ) (Homo sapiens, UniProt Q86WV6, G230A/H232R/R293Q/R71H). Put plainly: Luciferase reporter assay in HEK293T-hSTING-Luciferase cells, HAQ polymorph. The conditions noted are these: HAQ polymorph of human STING, EC50 range class. Format: cell-based. An excerpt:
(§1) Stable Cell Line Generation • a) Stable STING expressing cells—Stable HEK293T STING-expressing cell lines were generated using plasmids purchased from Invivogen, CA, USA, that contain STING cDNA cloned into the pUNO-1 vector under hEF1-HTLV promoter and containing the Blasticidin selection cassette. The plasmids hSTING(R232), hSTING(H232), hSTING(HAQ) were directly procured from Invivogen while hSTING (AQ) and hSTING (Q) were derived from hSTING(HAQ) and hSTING (R232) plasmids respectively by using a PCR based site directed mutagenesis method. These vectors were individually transfected into HEK293T cells using Lipofectamine (Invitrogen) and transfected cells were selected under Blasticidin selection. These transfected cells were further subjected to clonal selection using the limiting dilution method to obtain clonally pure populations of HEK cells transfected with each of the above mentioned human STING variants. Only those clones were selected in which ligand independent activation of STING was minimal. • b) Stable Luciferase reporter gene expressing cells—Stable HEK293T Luciferase reporter gene expressing cell lines were generated using pCDNA4 plasmids under an IRF-inducible promoter. This promoter is comprised of five tandem interferon-stimulated response elements (ISRE) fused to an ISG54 minimal promoter. This vector was transfected into HEK293T cells using Lipofectamine (Invitrogen) and transfected cells were selected under Zeocin selection. These transfected cells were further subjected to clonal selection using the limiting dilution method to obtain clonally pure populations of HEK cells transfected the Luciferase reporter construct. Only those clones were selected in which ligand independent induction of luciferase was minimal.
(§2) 5×10^5 clonally selected HEK293T-hSTING-Luciferase cells were seeded in 384-well plates in growth medium and stimulated with novel compounds. After 20 hr of stimulation supernatant were removed and secretary reporter gene activity were measured using the Quanti-Luc detection system (Invivogen) on a Spectramax i3X luminometer.
(§3) In the tables below, EC50 value ranges for exemplary compounds are given.
(§4) Single nucleotide polymorphisms of human STING have been described, which can affect the functional potency of compounds that modulate the activity of the STING protein (see Yi et. al., PLoS One, October 2013, 8(10), e77846). The 5 major polymorphisms of human STING are shown in FIG. 1, with their prevalence in human populations indicated.
(§5) The tables below show the potency of selected compounds of the invention against the most common polymorphisms.
In general terms: In a reporter assay the amount or activity of a reporter protein is the signal.

In another test the target is hSTING(H232) (Homo sapiens, UniProt Q86WV6). The experiment in a line: Luciferase reporter assay in HEK293T-hSTING-Luciferase cells, H232/REF polymorph. Type of test: cell-based. The conditions noted are these: H232/REF polymorph of human STING, EC50 range class.
Description: as §1, §2, §3, §4, §5

The test system of another test is IRF pathway. Put plainly: Reporter gene expression assay in THP1-Dual cells, IRF axis (secreted Lucia luciferase). Type of test: cell-based, human. The conditions noted are these: Homo sapiens, 20 hr stimulation, EC50 range class, read-out: THP-IRF activity. The procedure: (§6) THP1-Dual™ cells (Invivogen) were derived from the human THP-1 monocyte cell line by stable integration of two inducible reporter constructs. As a result, THP1-Dual™ cells allow the simultaneous study of the NF-κB pathway, by monitoring the activity of secreted SEAP, and the IRF pathway, by assessing the activity of a secreted luciferase (Lucia). 5×10^5 THP1-Dual™ cells were seeded in 384-well plates in growth medium and stimulated with novel compounds. After 20 hr of stimulation supernatants were removed and reporter proteins were readily measured in the cell culture supernatant using QUANTI-Blue™ (Invivogen), a SEAP detection reagent, and QUANTI-Luc™ (Invivogen), a luciferase detection reagent on a Spectramax i3X luminometer.
(§7) EC50 value ranges for exemplary compounds tested in the above assay are given.

For test [1], the target named is cynomolgus monkey STING protein (Macaca fascicularis, UniProt A0A2R3XZA6). Put plainly: Luciferase reporter assay, cynomolgus monkey STING overexpressed in HEK293T cells. Type of test: cell-based. Particulars: cynomolgus monkey STING overexpressed in HEK293T cells; read-out: Cynomolgus monkey STING activity (EC50 range). The procedure, abridged:
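HEK293T cells overexpressing cynomolgus STING with a secreted luciferase reporter were stimulated with compound for 20 hr. Supernatant reporter activity was then measured by Quanti-Luc luminescence, and EC50 values were derived.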

A further test has as its target hSTING(R232) (Homo sapiens, UniProt Q86WV6, H232R). Put plainly: Luciferase reporter assay in HEK293T-hSTING-Luciferase cells, R232 (wild type) human STING. The conditions noted are these: 20 hr stimulation, read-out: R232 human activity (EC50 range). Type of test: cell-based. In short, it runs like this:
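Clonal HEK293T cells stably expressing STING from a pUNO-1 plasmid plus an ISRE/ISG54-driven secreted luciferase reporter; 5×10^5 cells stimulated with compound for 20 hr. Supernatant luciferase read by luminescence, giving fold-induction over baseline and EC50.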

A further test deals with NF-κB pathway. Put plainly: Reporter gene expression assay in THP1-Dual cells, NFkB axis (secreted SEAP). Format: cell-based, human. The conditions noted are these: Homo sapiens, 20 hr stimulation, EC50 range class, read-out: THP-NFκB activity. As for the experimental part:
as §6, §7

Some results are limits rather than exact numbers.

cynomolgus monkey STING protein, sequence (A0A2R3XZA6 entry or part of it): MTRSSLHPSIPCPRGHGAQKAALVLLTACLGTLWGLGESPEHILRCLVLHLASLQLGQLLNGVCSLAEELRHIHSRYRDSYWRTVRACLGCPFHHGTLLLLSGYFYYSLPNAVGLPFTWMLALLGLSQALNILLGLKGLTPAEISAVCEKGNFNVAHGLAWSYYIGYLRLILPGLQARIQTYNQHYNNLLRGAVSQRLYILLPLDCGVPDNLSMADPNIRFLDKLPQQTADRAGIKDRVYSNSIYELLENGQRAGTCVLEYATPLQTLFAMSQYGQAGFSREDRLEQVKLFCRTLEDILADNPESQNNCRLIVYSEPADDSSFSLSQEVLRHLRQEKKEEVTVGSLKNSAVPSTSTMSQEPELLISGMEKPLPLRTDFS
hSTING(R232), sequence (Q86WV6 whole entry H232R): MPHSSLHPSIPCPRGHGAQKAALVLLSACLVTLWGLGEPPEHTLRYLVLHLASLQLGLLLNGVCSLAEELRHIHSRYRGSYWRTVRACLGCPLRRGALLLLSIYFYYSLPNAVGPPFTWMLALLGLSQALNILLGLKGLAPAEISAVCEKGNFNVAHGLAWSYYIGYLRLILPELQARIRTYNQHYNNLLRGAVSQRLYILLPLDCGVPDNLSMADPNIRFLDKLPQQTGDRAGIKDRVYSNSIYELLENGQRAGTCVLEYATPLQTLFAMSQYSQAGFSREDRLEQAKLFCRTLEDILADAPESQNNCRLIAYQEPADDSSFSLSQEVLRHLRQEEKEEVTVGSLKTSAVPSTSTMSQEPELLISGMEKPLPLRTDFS
hSTING(H232), sequence (Q86WV6 whole entry): as the sequence (Q86WV6 whole entry H232R) above, with R232H counted along it
hSTING(HAQ), sequence (Q86WV6 whole entry R71H/G230A/H232R/R293Q): as the sequence (Q86WV6 whole entry H232R) above, with R71H, G230A, R293Q counted along it

As for `C[C@H]1c2ccc(C(=O)NCc3c(F)cc(F)cc3F)cc2N(Cc2c(F)cccc2Cl)C(=O)N1C` (single isomer, unassigned) [Example 76], the EC50 (at hSTING(HAQ); on hSTING(H232); with IRF pathway; in test [1]; at hSTING(R232); in the test on NF-κB pathway) was less than 1000 nM in each case.

Regarding `Cc1ncc(Cl)c(CN2C(=O)N(C)[C@@H](C)c3ccc(C(=O)NCc4c(F)cc(F)cc4F)cc32)c1F` [Example 77, (S)-1-((5-chloro-3-fluoro-2-methylpyridin-4-yl)methyl)-3,4-dimethyl-2-oxo-N-(2,4,6-trifluorobenzyl)-1,2,3,4-tetrahydroquinazoline-7-carboxamide], the EC50 (on hSTING(HAQ); on hSTING(H232); in the test with IRF pathway; in test [1]; at hSTING(R232); in the test on NF-κB pathway) was less than 1000 nM in each case.

In the case of `C[C@H]1c2ccc(C(=O)NCc3c(F)cc(F)cc3F)cc2N(Cc2c(F)cc(O)cc2F)C(=O)N1C` [Example 78, (S)-1-(2,6-difluoro-4-hydroxybenzyl)-3,4-dimethyl-2-oxo-N-(2,4,6-trifluorobenzyl)-1,2,3,4-tetrahydroquinazoline-7-carboxamide], the EC50 (on hSTING(HAQ); on hSTING(H232); in the test on IRF pathway; in test [1]; on hSTING(R232); in the test with NF-κB pathway) was less than 1000 nM in each case.

With `C[C@H]1c2ccc(C(=O)NCc3c(F)cc(F)cc3F)cc2N(Cc2c(F)cc(OCCO)cc2F)C(=O)N1C` [Example 80, (S)-1-(2,6-Difluoro-4-(2-hydroxyethoxy)benzyl)-3,4-dimethyl-2-oxo-N-(2,4,6-trifluorobenzyl)-1,2,3,4-tetrahydroquinazoline-7-carboxamide], the EC50 is less than 1000 nM on hSTING(HAQ); less than 1000 nM on hSTING(H232); 1000 to 10000 nM in the test on IRF pathway; less than 1000 nM in test [1]; less than 1000 nM at hSTING(R232); 1000 to 10000 nM in the test on NF-κB pathway.

For the molecule `C[C@H]1c2ccc(C(=O)NCc3c(F)cc(F)cc3F)cc2N(Cc2c(F)cc(OCCCO)cc2F)C(=O)N1C` [Example 81, (S)-1-(2,6-difluoro-4-(3-hydroxypropoxy)benzyl)-3,4-dimethyl-2-oxo-N-(2,4,6-trifluorobenzyl)-1,2,3,4-tetrahydroquinazoline-7-carboxamide], the EC50 (on hSTING(HAQ); at hSTING(H232); in the test with IRF pathway; in test [1]; on hSTING(R232); with NF-κB pathway) was less than 1000 nM throughout.

Regarding `CC(=O)Nc1ccc(COC(=O)Oc2cc(F)c(CN3C(=O)N(C)[C@@H](C)c4ccc(C(=O)NCc5c(F)cc(F)cc5F)cc43)c(F)c2)cc1` [Example 85, (S)-4-Acetamidobenzyl-(4-((3,4-dimethyl-2-oxo-7-((2,4,6-trifluorobenzyl)carbamoyl)-3,4-dihydroquinazolin-1(2H)-yl)methyl)-3,5-difluorophenyl) carbonate], the EC50 (at hSTING(HAQ); at hSTING(H232); in the test on IRF pathway; in test [1]; on hSTING(R232); in the test on NF-κB pathway) was less than 1000 nM each time.

Turning to `C[C@H]1c2ccc(C(=O)NCc3c(F)cc(F)cc3F)cc2N(Cc2c(F)ccc(O)c2Cl)C(=O)N1C` [Example 87, (S)-1-(2-Chloro-6-fluoro-3-hydroxybenzyl)-3,4-dimethyl-2-oxo-N-(2,4,6-trifluorobenzyl)-1,2,3,4-tetrahydroquinazoline-7-carboxamide], the EC50 (at hSTING(HAQ); at hSTING(H232); in the test with IRF pathway; in test [1]; at hSTING(R232); in the test on NF-κB pathway) was less than 1000 nM in each case.

For `COc1ccc(F)c(CN2C(=O)N(C)[C@@H](C)c3ccc(C(=O)NCc4c(F)cc(F)cc4F)cc32)c1Cl` [Example 88, (S)-1-(2-Chloro-6-fluoro-3-methoxybenzyl)-3,4-dimethyl-2-oxo-N-(2,4,6-trifluorobenzyl)-1,2,3,4-tetrahydroquinazoline-7-carboxamide], the EC50 (on hSTING(HAQ); at hSTING(H232); in the test with IRF pathway; in test [1]; on hSTING(R232); in the test on NF-κB pathway) was less than 1000 nM throughout.

Take `C[C@H]1c2ccc(C(=O)NCc3c(F)cc(F)cc3F)cc2N(Cc2c(F)ccc(OCCO)c2Cl)C(=O)N1C` [Example 137, (S)-1-(2-Chloro-6-fluoro-3-(2-hydroxyethoxy)benzyl)-3,4-dimethyl-2-oxo-N-(2,4,6-trifluorobenzyl)-1,2,3,4-tetrahydroquinazoline-7-carboxamide]: the EC50 (at hSTING(HAQ); at hSTING(H232); in the test with IRF pathway; in test [1]; at hSTING(R232); in the test with NF-κB pathway) was less than 1000 nM each time.

For the molecule `C[C@H]1c2ccc(C(=O)NCc3c(F)cc(F)cc3F)cc2N(Cc2c(F)ccc(OCCCO)c2Cl)C(=O)N1C` [Example 138, (S)-1-(2-Chloro-6-fluoro-3-(3-hydroxypropoxy)benzyl)-3,4-dimethyl-2-oxo-N-(2,4,6-trifluorobenzyl)-1,2,3,4-tetrahydroquinazoline-7-carboxamide], the EC50 (at hSTING(HAQ); on hSTING(H232); with IRF pathway; in test [1]; at hSTING(R232); with NF-κB pathway) was less than 1000 nM each time.

Consider `C[C@H]1c2ccc(C(=O)NCc3c(F)cc(F)cc3F)cc2N(Cc2c(F)ccc(C(N)=O)c2F)C(=O)N1C` [Example 141, (S)-1-(3-Carbamoyl-2,6-difluorobenzyl)-3,4-dimethyl-2-oxo-N-(2,4,6-trifluorobenzyl)-1,2,3,4-tetrahydroquinazoline-7-carboxamide], for which the EC50 (at hSTING(HAQ); on hSTING(H232); with IRF pathway; in test [1]; on hSTING(R232); in the test on NF-κB pathway) was less than 1000 nM each time.

On to `CC1c2ccc(C(=O)NCc3c(F)cc(F)cc3F)cc2N(Cc2c(O)cccc2F)C(=O)N1C` (stereo not shown) [Example 171, 1-(2-fluoro-6-hydroxybenzyl)-3,4-dimethyl-2-oxo-N-(2,4,6-trifluorobenzyl)-1,2,3,4-tetrahydroquinazoline-7-carboxamide], for which the EC50 (at hSTING(HAQ); on hSTING(H232); in the test on IRF pathway; in test [1]; with NF-κB pathway) was less than 1000 nM each time.

For the molecule `CC1c2ccc(C(=O)NCc3c(F)cc(F)cc3F)cc2N(Cc2c(F)cccc2F)C(=O)N1C` (stereo not shown) [Example 206, 1-(2,6-difluorobenzyl)-3,4-dimethyl-2-oxo-N-(2,4,6-trifluorobenzyl)-1,2,3,4-tetrahydroquinazoline-7-carboxamide], the EC50 (on hSTING(HAQ); on hSTING(H232); with IRF pathway; in test [1]; in the test with NF-κB pathway) was less than 1000 nM in each case.

For the origin of these results see US11571423B2, “Small molecule modulators of human sting” (Curadev Pharma Limited, priority 2017, dated 2023).
